Measured values taken from PubChem BioAssay AID1963848 (Molecular Pharmacology Branch, DTP, NCI, 2024).

Tested on: 379773-124-R-J2-PDC spheroid viability
Assay: Anticancer human tumor 379773-124-R-J2-PDC patient-derived endometrial carcinoma cell line growth inhibition [POLQ]
Details: spheroids with HUVEC and MSC; for IC50: curve of first compound; for viability, T/C: stronger effect = lower value
How it was run: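 PDC + HUVEC + MSC complex spheroids; POLQ inhibitors ± partner drugs; top conc. at/near clinical Cmax, else 10 microM (SN-38 1 microM), half-log dilutions; 37 degrees C, 5% CO2.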

[1] = second compound 0.0316 µM, first compound 0.00316 µM
[2] = second compound 0.0316 µM, first compound 0.01 µM
[3] = second compound 0.0316 µM, first compound 0.0316 µM
[4] = second compound 0.0316 µM, first compound 0.1 µM
[5] = second compound 0.0316 µM, first compound 0.316 µM
[6] = second compound 0.0316 µM, first compound 1 µM
[7] = second compound 0.1 µM, first compound 0.00316 µM
[8] = second compound 0.1 µM, first compound 0.01 µM
[9] = second compound 0.1 µM, first compound 0.0316 µM
[10] = second compound 0.1 µM, first compound 0.1 µM
[11] = second compound 0.1 µM, first compound 0.316 µM
[12] = second compound 0.1 µM, first compound 1 µM
[13] = second compound 0.316 µM, first compound 0.00316 µM
[14] = second compound 0.316 µM, first compound 0.01 µM
[15] = second compound 0.316 µM, first compound 0.0316 µM
[16] = second compound 0.316 µM, first compound 0.1 µM
[17] = second compound 0.316 µM, first compound 0.316 µM
[18] = second compound 0.316 µM, first compound 1 µM
[19] = second compound 1 µM, first compound 0.00316 µM
[20] = second compound 1 µM, first compound 0.01 µM
[21] = second compound 1 µM, first compound 0.0316 µM
[22] = second compound 1 µM, first compound 0.1 µM
[23] = second compound 1 µM, first compound 0.316 µM
[24] = second compound 1 µM, first compound 1 µM
[25] = second compound 3.16 µM, first compound 0.00316 µM
[26] = second compound 3.16 µM, first compound 0.01 µM
[27] = second compound 3.16 µM, first compound 0.0316 µM
[28] = second compound 3.16 µM, first compound 0.1 µM
[29] = second compound 3.16 µM, first compound 0.316 µM
[30] = second compound 3.16 µM, first compound 1 µM
[31] = second compound 10 µM, first compound 0.00316 µM
[32] = second compound 10 µM, first compound 0.01 µM
[33] = second compound 10 µM, first compound 0.0316 µM
[34] = second compound 10 µM, first compound 0.1 µM
[35] = second compound 10 µM, first compound 0.316 µM
[36] = second compound 10 µM, first compound 1 µM
[37] = second compound 0.0316 µM, first compound 3.16 µM
[38] = second compound 0.0316 µM, first compound 10 µM
[39] = second compound 0.1 µM, first compound 3.16 µM
[40] = second compound 0.1 µM, first compound 10 µM
[41] = second compound 0.316 µM, first compound 3.16 µM
[42] = second compound 0.316 µM, first compound 10 µM
[43] = second compound 1 µM, first compound 3.16 µM
[44] = second compound 1 µM, first compound 10 µM
[45] = second compound 3.16 µM, first compound 3.16 µM
[46] = second compound 3.16 µM, first compound 10 µM
[47] = second compound 10 µM, first compound 3.16 µM
[48] = second compound 10 µM, first compound 10 µM
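Note: spheroids exposed to drugs for seven days before readout.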
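Throughout, for viability, T/C: percent viability relative to DMSO vehicle control taken as 100%.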

C=CCn1c(=O)c2cnc(Nc3ccc(N4CCN(C)CC4)cc3)nc2n1-c1cccc(C(C)(C)O)n1 + Nc1ccc(C#CCN(C(=O)Cc2ncc(C(F)(F)F)cc2C(F)(F)F)c2ccc(F)cc2)nn1
IC50 (second compound 0.0316 µM): 447 nM
IC50 (second compound 0.1 µM): 488 nM
IC50 (second compound 0.316 µM): 436 nM
IC50 (second compound 1 µM): 447 nM
IC50 (second compound 3.16 µM): 499 nM
IC50 (second compound 10 µM): 451 nM
viability, T/C [1]: 90.6%
viability, T/C [2]: 101%
viability, T/C [3]: 93.7%
viability, T/C [4]: 104%
viability, T/C [5]: 70.3%
viability, T/C [6]: 2.92%
viability, T/C [7]: 95.5%
viability, T/C [8]: 99.2%
viability, T/C [9]: 107%
viability, T/C [10]: 111%
viability, T/C [11]: 78.1%
viability, T/C [12]: 3.57%
viability, T/C [13]: 95.7%
viability, T/C [14]: 91.7%
viability, T/C [15]: 97%
viability, T/C [16]: 92.4%
viability, T/C [17]: 68.1%
viability, T/C [18]: 3.12%
viability, T/C [19]: 103%
viability, T/C [20]: 103%
viability, T/C [21]: 100%
viability, T/C [22]: 97.5%
viability, T/C [23]: 69.8%
viability, T/C [24]: 3.73%
viability, T/C [25]: 113%
viability, T/C [26]: 99.3%
viability, T/C [27]: 96.1%
viability, T/C [28]: 105%
viability, T/C [29]: 80.9%
viability, T/C [30]: 3.02%
viability, T/C [31]: 101%
viability, T/C [32]: 88.8%
viability, T/C [33]: 92.3%
viability, T/C [34]: 88.6%
viability, T/C [35]: 71.4%
viability, T/C [36]: 2.81%

CC1COCCN1c1cc(C2(S(C)(=N)=O)CC2)nc(-c2ccnc3[nH]ccc23)n1 (stereo not given) + Nc1ccc(C#CCN(C(=O)Cc2ncc(C(F)(F)F)cc2C(F)(F)F)c2ccc(F)cc2)nn1
IC50 (second compound 0.0316 µM): 2760 nM
IC50 (second compound 0.1 µM): 3070 nM
IC50 (second compound 0.316 µM): 2670 nM
IC50 (second compound 1 µM): 3050 nM
IC50 (second compound 3.16 µM): 2540 nM
IC50 (second compound 10 µM): 2640 nM
viability, T/C [3]: 89.8%
viability, T/C [4]: 90.3%
viability, T/C [5]: 86.5%
viability, T/C [6]: 89.9%
viability, T/C [37]: 44.8%
viability, T/C [38]: 9.42%
viability, T/C [9]: 89.2%
viability, T/C [10]: 89.6%
viability, T/C [11]: 87.9%
viability, T/C [12]: 83.5%
viability, T/C [39]: 49.1%
viability, T/C [40]: 9.47%
viability, T/C [15]: 89.8%
viability, T/C [16]: 97.5%
viability, T/C [17]: 87.1%
viability, T/C [18]: 84.4%
viability, T/C [41]: 44%
viability, T/C [42]: 10.4%
viability, T/C [21]: 97.9%
viability, T/C [22]: 101%
viability, T/C [23]: 87.9%
viability, T/C [24]: 85.3%
viability, T/C [43]: 48.1%
viability, T/C [44]: 10.3%
viability, T/C [27]: 93.5%
viability, T/C [28]: 85.6%
viability, T/C [29]: 78.5%
viability, T/C [30]: 89.3%
viability, T/C [45]: 41.3%
viability, T/C [46]: 11.1%
viability, T/C [33]: 95.7%
viability, T/C [34]: 85.3%
viability, T/C [35]: 90.9%
viability, T/C [36]: 86.4%
viability, T/C [47]: 43.2%
viability, T/C [48]: 9.54%

CCCS(=O)(=O)Nc1ccc(F)c(C(=O)c2c[nH]c3ncc(-c4ccc(Cl)cc4)cc23)c1F + Nc1ccc(C#CCN(C(=O)Cc2ncc(C(F)(F)F)cc2C(F)(F)F)c2ccc(F)cc2)nn1
IC50 (second compound 0.0316 µM): > 10000 nM
IC50 (second compound 0.1 µM): > 10000 nM
IC50 (second compound 0.316 µM): > 10000 nM
IC50 (second compound 1 µM): > 10000 nM
IC50 (second compound 3.16 µM): > 10000 nM
IC50 (second compound 10 µM): > 10000 nM
viability, T/C [3]: 85.6%
viability, T/C [4]: 97.3%
viability, T/C [5]: 83.9%
viability, T/C [6]: 92%
viability, T/C [37]: 80.9%
viability, T/C [38]: 55.1%
viability, T/C [9]: 95.3%
viability, T/C [10]: 88.7%
viability, T/C [11]: 87.2%
viability, T/C [12]: 85.7%
viability, T/C [39]: 81.4%
viability, T/C [40]: 55%
viability, T/C [15]: 94.6%
viability, T/C [16]: 95.8%
viability, T/C [17]: 81%
viability, T/C [18]: 94.6%
viability, T/C [41]: 93.6%
viability, T/C [42]: 70.8%
viability, T/C [21]: 90.6%
viability, T/C [22]: 86.6%
viability, T/C [23]: 95.1%
viability, T/C [24]: 85.7%
viability, T/C [43]: 77.9%
viability, T/C [44]: 59.2%
viability, T/C [27]: 96.5%
viability, T/C [28]: 89.7%
viability, T/C [29]: 92.1%
viability, T/C [30]: 96.4%
viability, T/C [45]: 75.1%
viability, T/C [46]: 59.8%
viability, T/C [33]: 100%
viability, T/C [34]: 87.3%
viability, T/C [35]: 79.8%
viability, T/C [36]: 83.6%
viability, T/C [47]: 81.5%
viability, T/C [48]: 54.3%

COc1cccc(OCCCN)c1-c1cc(Nc2cnc(C#N)cn2)n[nH]1 + Nc1ccc(C#CCN(C(=O)Cc2ncc(C(F)(F)F)cc2C(F)(F)F)c2ccc(F)cc2)nn1
IC50 (second compound 0.0316 µM): 6.21 nM
IC50 (second compound 0.1 µM): 6.12 nM
IC50 (second compound 0.316 µM): 6.36 nM
IC50 (second compound 1 µM): 6.47 nM
IC50 (second compound 3.16 µM): 6.4 nM
IC50 (second compound 10 µM): 6.36 nM
viability, T/C [1]: 86.5%
viability, T/C [2]: 24.3%
viability, T/C [3]: 3.65%
viability, T/C [4]: 2.95%
viability, T/C [5]: 2.97%
viability, T/C [6]: 1.66%
viability, T/C [7]: 80.2%
viability, T/C [8]: 27.6%
viability, T/C [9]: 3.76%
viability, T/C [10]: 2.65%
viability, T/C [11]: 2.25%
viability, T/C [12]: 1.2%
viability, T/C [13]: 95.2%
viability, T/C [14]: 20.7%
viability, T/C [15]: 3.16%
viability, T/C [16]: 2.72%
viability, T/C [17]: 3.55%
viability, T/C [18]: 1.23%
viability, T/C [19]: 98.5%
viability, T/C [20]: 20.5%
viability, T/C [21]: 3.32%
viability, T/C [22]: 2.87%
viability, T/C [23]: 4.02%
viability, T/C [24]: 1.67%
viability, T/C [25]: 102%
viability, T/C [26]: 16.9%
viability, T/C [27]: 3.53%
viability, T/C [28]: 1.93%
viability, T/C [29]: 2.04%
viability, T/C [30]: 1.29%
viability, T/C [31]: 93.2%
viability, T/C [32]: 22%
viability, T/C [33]: 2.53%
viability, T/C [34]: 2.36%
viability, T/C [35]: 2.24%
viability, T/C [36]: 1.49%

Cn1ncnc1[C@H]1c2n[nH]c(=O)c3cc(F)cc(c23)N[C@@H]1c1ccc(F)cc1 + Nc1ccc(C#CCN(C(=O)Cc2ncc(C(F)(F)F)cc2C(F)(F)F)c2ccc(F)cc2)nn1
IC50 (second compound 0.0316 µM): > 100 nM
IC50 (second compound 0.1 µM): > 100 nM
IC50 (second compound 0.316 µM): > 100 nM
IC50 (second compound 1 µM): > 100 nM
IC50 (second compound 3.16 µM): > 100 nM
IC50 (second compound 10 µM): > 100 nM
viability, T/C (second compound 0.0316 µM, first compound 0.000316 µM): 103%
viability, T/C (second compound 0.0316 µM, first compound 0.001 µM): 86.2%
viability, T/C [1]: 94%
viability, T/C [2]: 85.8%
viability, T/C [3]: 68.6%
viability, T/C [4]: 53.7%
viability, T/C (second compound 0.1 µM, first compound 0.000316 µM): 89.8%
viability, T/C (second compound 0.1 µM, first compound 0.001 µM): 94.6%
viability, T/C [7]: 99.3%
viability, T/C [8]: 91.9%
viability, T/C [9]: 79.1%
viability, T/C [10]: 55.8%
viability, T/C (second compound 0.316 µM, first compound 0.000316 µM): 100%
viability, T/C (second compound 0.316 µM, first compound 0.001 µM): 102%
viability, T/C [13]: 93.6%
viability, T/C [14]: 86.3%
viability, T/C [15]: 72.5%
viability, T/C [16]: 64.2%
viability, T/C (second compound 1 µM, first compound 0.000316 µM): 97.7%
viability, T/C (second compound 1 µM, first compound 0.001 µM): 90.1%
viability, T/C [19]: 99.1%
viability, T/C [20]: 86.6%
viability, T/C [21]: 80.4%
viability, T/C [22]: 55.1%
viability, T/C (second compound 3.16 µM, first compound 0.000316 µM): 113%
viability, T/C (second compound 3.16 µM, first compound 0.001 µM): 91.5%
viability, T/C [25]: 98%
viability, T/C [26]: 102%
viability, T/C [27]: 67.5%
viability, T/C [28]: 58.2%
viability, T/C (second compound 10 µM, first compound 0.000316 µM): 87.7%
viability, T/C (second compound 10 µM, first compound 0.001 µM): 90.6%
viability, T/C [31]: 86.3%
viability, T/C [32]: 84%
viability, T/C [33]: 78.8%
viability, T/C [34]: 56.5%
